Some results are limits rather than exact numbers.

The test system of the first data set is Culex pipiens. In words: Efficacy test against Culex pipiens. The settings on record: 2 ppm; first-instar larvae; after 1 day. It is filed as in vivo. How it is done: (§1) 5 parts of the compound of the present invention, 93.6 parts of dimethylformamide, and 1.4 parts of polyoxyethylene alkylaryl ether were mixed and dissolved to prepare an emulsion (I) of 5% of the active ingredient.
(§2) The insect mortality rate and the control rate were calculated by the following formula. Insect mortality rate (%)=(number of dead insects/number of sample insects)×100 Prevention rate=[1−(Nt)/(Nc)]×100
Emulsion (I) was diluted with water so that the concentration of the compound of the present invention reaches 2 ppm to prepare a chemical solution for test. 20 first-instar larvae of Culex pipiens were released into 100 ml of the chemical solution for test, then the number of dead insects was calculated after 1 day was passed, and the insect mortality rate was calculated by the formula. The test was repeated twice.
`CCS(=O)(=O)c1cc(C(F)(F)F)ccc1-n1ncc(-c2ccc(OC(F)(F)F)cc2)c1C` [Compound 1-19] showed an insect mortality rate of 100%.
Same read-out and setting: with `CCS(=O)(=O)c1cc(C(F)(F)F)ccc1-n1cc(-c2ccc(OC(F)(F)F)cc2)cn1` [Compound 1-14] the figure was 100%; with `CCS(=O)(=O)c1cc(C(F)(F)F)ccc1-n1ncc(-c2ccc(C(F)(F)F)nc2)c1C` [Compound 1-24], 100%.

Test system in a further data set: not given
Test: not given
Details: not given
Broadly, the melting point is the temperature of the solid-liquid transition. As for `CCS(=O)(=O)c1cc(C(F)(F)F)ccc1-n1nnc(-c2ccc(C(F)(F)F)cc2)c1C` [Compound 4-6, 1-(2-(Ethylsulfonyl)-4-(trifluoromethyl)phenyl)-5-methyl-4-(4-(trifluoromethyl)phenyl)-1H-1,2,3-triazole], the melting point lay within 154 to 156 °C.
`CCS(=O)(=O)c1cc(C(F)(F)F)ccc1-n1cc(-c2ccc(OC(F)(F)F)cc2)nn1` [Compound 4-8, 1-(2-(Ethylsulfonyl)-4-(trifluoromethyl)phenyl)-4-(4-(trifluoromethoxy)phenyl)-1H-1,2,3-triazole] displayed a melting point of 178 to 179 °C.
In turn, `CCSc1cc(C(F)(F)F)ccc1-n1cc(-c2ccc(OC(F)(F)F)cc2)nn1` [Compound 4-7, 1-(2-(Ethylthio)-4-(trifluoromethyl)phenyl)-4-(4-(trifluoromethoxy)phenyl)-1H-1,2,3-triazole] came in with a melting point of 110 to 111 °C.
Still for that read-out and setting: with `CCSc1cc(C(F)(F)F)ccc1-n1nnc(-c2ccc(C(F)(F)F)cc2)c1C` [Compound 4-5, 1-(2-(Ethylthio)-4-(trifluoromethyl)phenyl)-5-methyl-4-(4-(trifluoromethyl)phenyl)-1H-1,2,3-triazole] the figure was 79 to 80 °C.

The subject of a further data set is Pseudaletia separata. The experiment in a line: Efficacy test against Pseudaletia separata (artificial diet). It is filed as in vivo. The settings on record: 1 μl emulsion (I) (5% active ingredient) mixed in 0.8 g artificial diet; second-instar larvae; 25° C.; fifth day. How it is done: as §1, §2
0.8 g of commercially available artificial diet (Insecta US, manufactured by Nosan Corporation) and 1 μl of emulsion (1) were well mixed and 0.2 g of the resulting mixture was packed in a plastic test container (1.4 ml) per each treatment group to prepare test feeds.
2 second-instar larvae of Pseudaletia separata were inoculated into each treatment group and sealed with a plastic lid. The plastic test containers were placed in a thermostatic chamber with a temperature of 25° C., and the insect mortality rate and the food intake amount were investigated on the fifth day. The test was repeated twice.
Further, a test under the same conditions except that the compound of the present invention was removed from emulsion (I) was conducted as a solvent control group.
For the compound `CCS(=O)(=O)c1cccnc1-n1ncc(-c2ccc(OC(F)(F)F)cc2)c1N` [Compound 2-10], the “food intake amount in ratio to the solvent control group” value is reported as not above 10%.

The same data set, now with this note: in vivo.
Turning to `CCS(=O)(=O)c1cc(C(F)(F)F)ccc1-n1ncc(-c2ccc(OC(F)(F)F)c(Cl)c2)c1N` [Compound 1-38], the insect mortality rate turned out to be 100%.
Still for that read-out and setting: the value for `CCS(=O)(=O)c1cc(C(F)(F)F)cnc1-n1cc(-c2ccc(OC(F)(F)F)cc2)cn1` [Compound 2-6] was 100%; that for `CCS(=O)(=O)c1cc(C(F)(F)F)ccc1-n1ncc(-c2ccc(SC(F)(F)F)cc2)c1N` [Compound 1-32] was 100%; that for `CCS(=O)(=O)c1cc(C(F)(F)F)ccc1-n1cc(-c2ccc(C(F)(F)F)nc2)cn1` [Compound 1-15] was 100%.
`CCS(=O)(=O)c1cc(C(F)(F)F)cnc1-n1ncc(-c2ccc(OC(F)(F)F)cc2)c1N` [Compound 2-4]: the insect mortality rate is given as 100%.
As to `CCS(=O)(=O)c1cccnc1-n1ncc(-c2ccc(C(F)(F)C(F)(F)F)cc2)c1C` [Compound 2-9], the insect mortality rate was determined as 100%.
Still for that read-out and setting: with `CCSc1cc(C(F)(F)F)ccc1-c1cn(-c2ccc(OC(F)(F)F)cc2)nn1` [Compound 5-1] the figure was 100%; with `CCSc1cc(C(F)(F)F)ccc1-n1ncc(-c2ccc(C(F)(F)F)cc2)c1N` [Compound 1-4], 100%; with `CCS(=O)(=O)c1cc(C(F)(F)F)ccc1-n1cc(-n2cc(C(F)(F)F)cn2)cn1` [Compound 1-50], 100%.
Same read-out and setting: the value for `CCS(=O)(=O)c1cc(C(F)(F)F)ccc1-c1cnn(-c2ccc(C(F)(F)F)cc2)c1Br` [Compound 3-3] was 100%.
On the same count and under the same terms, the value for `CCS(=O)(=O)c1cc(C(F)(F)F)ccc1-n1ncc(-c2ccc(C(F)(F)C(F)(F)F)nc2)c1C` [Compound 1-47] was 100%.
Take `CCS(=O)(=O)c1cc(C(F)(F)F)ccc1-n1ncc(-c2cccc(OC(F)(F)F)c2)c1N` [Compound 1-34]: the insect mortality rate is 100%.
The same measure, in the same setting: with `CCS(=O)(=O)c1cc(C(F)(F)F)ccc1-n1ncc(-c2ccc(C(F)(F)F)c(Cl)c2)c1N` [Compound 1-36] the figure was 100%; with `CCS(=O)(=O)c1cccnc1-n1ncc(-c2ccc(OC(F)(F)F)cc2)c1N` [Compound 2-10], 100%.
Same read-out and setting: with `CCS(=O)(=O)c1cc(C(F)(F)F)ccc1-n1cc(-n2cc(C(F)(F)C(F)(F)F)cn2)cn1` [Compound 1-51] the figure was 100%; with `CCS(=O)(=O)c1cccnc1-n1ncc(-c2ccc(OC(F)(F)F)cc2)c1C` [Compound 2-8], 100%.
Turning to `CCS(=O)(=O)c1cccnc1-n1ncc(-c2ccc(C(F)(F)C(F)(F)F)cc2)c1N` [Compound 2-11], the insect mortality rate stood at 100%.
`CCS(=O)(=O)c1cc(C(F)(F)F)ccc1-n1ncc(-c2ccc(C(F)(F)C(F)(F)F)nc2)c1C#N` [Compound 1-52] displayed an insect mortality rate of 100%.
The same measure, in the same setting: with `CC[S+]([O-])c1cc(C(F)(F)F)ccc1-n1ncc(-c2ccc(C(F)(F)F)cc2)c1C` (stereo not shown) [Compound 1-9] the figure was 100%; with `CCS(=O)(=O)c1cc(C(F)(F)F)ccc1-n1ncc(-c2ccc(OC(F)(F)F)cc2)c1C` [Compound 1-19], 100%.
Compound `CCS(=O)(=O)c1cc(C(F)(F)F)cnc1-n1ncc(-c2ccc(C(F)(F)F)nc2)c1C` [Compound 2-5] gave an insect mortality rate of 100%.
Still for that read-out and setting: the value for `CCS(=O)(=O)c1cc(C(F)(F)F)ccc1-n1cc(-c2ccc(C(F)(F)F)cc2)cn1` [Compound 1-2] was 100%; that for `CCS(=O)(=O)c1cccnc1-n1ncc(-c2ccc(C(F)(F)C(F)(F)F)nc2)c1C` [Compound 2-16] was 100%.
Turning to `CCS(=O)(=O)c1cccnc1-n1ncc(-c2ccc(SC(F)(F)F)cc2)c1N` [Compound 2-12], the insect mortality rate is on record as 100%.
The same measure, in the same setting: the value for `CCSc1cc(C(F)(F)F)ccc1-n1cc(-c2ccc(C(F)(F)F)cc2)cn1` [Compound 1-1] was 100%; that for `CCS(=O)(=O)c1cc(C(F)(F)F)ccc1-n1cc(-c2ccc(C(F)(F)C(F)(F)F)cc2)cn1` [Compound 1-22] was 100%.
The compound `CCS(=O)(=O)c1cc(C(F)(F)F)ccc1-n1cc(-c2ccc(C(F)(F)F)cc2F)cn1` [Compound 1-16] registered an insect mortality rate of 100%.
The same measure, in the same setting: with `CCS(=O)(=O)c1cc(C(F)(F)F)ccc1-c1cn(-c2ccc(OC(F)(F)F)cc2)nn1` [Compound 5-2] the figure was 100%.
As for `CCS(=O)(=O)c1cc(C(F)(F)F)ccc1-n1ncc(-c2ccc(C(F)(F)F)nc2)c1N` [Compound 1-25], the insect mortality rate is recorded as 100%.
Regarding `CCS(=O)(=O)c1cc(C(F)(F)F)ccc1-n1ncc(-c2cc(C(F)(F)F)cc(C(F)(F)F)c2)c1N` [Compound 1-28], the insect mortality rate stood at 100%.
Same read-out and setting: with `CCS(=O)(=O)c1cc(C(F)(F)F)ccc1-n1ncc(-c2ccc(C(F)(C(F)(F)F)C(F)(F)F)cc2)c1N` [Compound 1-35] the figure was 100%; with `CCS(=O)(=O)c1cc(C(F)(F)F)cnc1-n1ncc(-c2ccc(OC(F)(F)F)cc2)c1C` [Compound 2-7], 100%.
On the same count and under the same terms, the value for `CCS(=O)(=O)c1cc(C(F)(F)F)ccc1-n1cc(-c2cc(C(F)(F)F)cc(C(F)(F)F)c2)cn1` [Compound 1-27] was 100%; that for `CCS(=O)(=O)c1cc(C(F)(F)F)ccc1-n1ncc(-c2ccc(C(F)(F)F)cc2)c1N` [Compound 1-5] was 100%; that for `CCS(=O)(=O)c1cc(C(F)(F)F)ccc1-n1ncc(-c2cc(C(F)(F)F)cc(C(F)(F)F)c2)c1I` [Compound 1-30] was 100%.
Compound `CCS(=O)(=O)c1cc(C(F)(F)F)ccc1-n1ncc(-c2ccc(OC(F)(F)F)cc2)c1F` [Compound 1-23] came in with an insect mortality rate of 100%.
On the same count and under the same terms, with `CCS(=O)(=O)c1cc(C(F)(F)F)ccc1-n1cc(-c2ccc(OC(F)(F)F)cc2)cn1` [Compound 1-14] the figure was 100%; with `CCS(=O)(=O)c1cc(C(F)(F)F)ccc1-n1ncc(-c2cc(C(F)(F)F)cc(C(F)(F)F)c2)c1C` [Compound 1-26], 100%; with `CCS(=O)(=O)c1cc(C(F)(F)F)ccc1-n1ncc(-c2ccc(C(F)(F)C(F)(F)F)cc2)c1N` [Compound 1-31], 100%.
For `CCS(=O)(=O)c1cc(C(F)(F)F)ccc1-n1ncc(-c2ccc(C(F)(F)F)nc2)c1C` [Compound 1-24], the insect mortality rate is given as 100%.
On the same count and under the same terms, with `CCS(=O)(=O)c1cc(C(F)(F)F)ccc1-n1ncc(-c2ccc(OC(F)(F)F)cc2)c1Br` [Compound 1-20] the figure was 100%.

Values taken from patent US10548316B2, “Diarylazole compound and harmful organism control agent” (Nippon Soda Co., Ltd., priority 2015, dated 2020).
